Assay results as given in the Kinase Knowledgebase extract (Sharma et al. 2016).

Molecular target: PIK3CG (human) (UniProt P48736)
Assay: Assessment of PIK3CG Kinase Activity

Sequence of PIK3CG (human) (P48736 whole entry, looked up): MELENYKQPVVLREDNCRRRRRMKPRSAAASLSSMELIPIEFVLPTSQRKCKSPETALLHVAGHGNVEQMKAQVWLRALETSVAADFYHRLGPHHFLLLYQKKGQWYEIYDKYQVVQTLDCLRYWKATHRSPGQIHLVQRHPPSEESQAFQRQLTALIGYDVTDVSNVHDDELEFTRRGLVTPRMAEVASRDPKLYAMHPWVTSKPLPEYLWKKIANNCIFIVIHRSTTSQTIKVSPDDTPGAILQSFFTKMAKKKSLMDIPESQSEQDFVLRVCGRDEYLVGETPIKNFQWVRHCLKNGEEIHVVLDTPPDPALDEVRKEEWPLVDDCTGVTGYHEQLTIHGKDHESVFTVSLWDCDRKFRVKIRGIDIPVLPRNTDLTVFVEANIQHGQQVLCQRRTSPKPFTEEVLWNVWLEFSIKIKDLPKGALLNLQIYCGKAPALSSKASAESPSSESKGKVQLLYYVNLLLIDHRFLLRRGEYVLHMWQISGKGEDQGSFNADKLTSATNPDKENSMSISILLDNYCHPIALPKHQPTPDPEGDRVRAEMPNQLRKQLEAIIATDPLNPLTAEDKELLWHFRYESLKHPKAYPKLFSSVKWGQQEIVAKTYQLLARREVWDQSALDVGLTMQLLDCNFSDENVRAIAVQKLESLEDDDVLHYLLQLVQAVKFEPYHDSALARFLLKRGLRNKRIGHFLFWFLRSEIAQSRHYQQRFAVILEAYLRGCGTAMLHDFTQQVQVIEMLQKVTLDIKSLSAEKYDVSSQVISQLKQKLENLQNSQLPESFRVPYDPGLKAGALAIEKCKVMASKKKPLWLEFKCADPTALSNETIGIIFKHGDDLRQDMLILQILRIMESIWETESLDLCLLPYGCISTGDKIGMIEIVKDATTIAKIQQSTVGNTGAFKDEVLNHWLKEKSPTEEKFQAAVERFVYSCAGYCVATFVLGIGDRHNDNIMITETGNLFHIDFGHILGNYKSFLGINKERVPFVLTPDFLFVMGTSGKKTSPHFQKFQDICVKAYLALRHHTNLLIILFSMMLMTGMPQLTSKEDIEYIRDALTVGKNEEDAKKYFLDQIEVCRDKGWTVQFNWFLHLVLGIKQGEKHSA

With Cc1nc(C)c(S(=O)(=O)NCCNC(=O)Nc2nc3c(s2)-c2c(c(-c4ccccc4)nn2-c2ccccc2Cl)CC3)s1 as the compound, how does the IC50 read?
Its IC50 is less than 800 nM.

CC(C)(C)OC(=O)N1CCC(CNC(=O)Nc2nc3c(s2)-c2c(c(-c4cccnc4)nn2-c2ccccc2Cl)CC3)CC1 was tested. Which IC50 did it give?
The IC50 was less than 800 nM.

How did the IC50 turn out when O=C(Nc1nc2c(s1)-c1c(c(-c3ccccc3)nn1-c1ccccc1Cl)CC2)NC1CCS(=O)(=O)C1 (configuration not stated) was run?
Its IC50 is less than 800 nM.

For O=C(Nc1nc2c(s1)-c1c(c(-c3cccnc3)nn1-c1ccccc1Cl)CC2)NC1CC1, which IC50 is on record?
The IC50 was less than 800 nM.

With O=C(NCCCN1CCOCC1)Nc1nc2c(s1)-c1c(c(-c3cncnc3)nn1-c1ccccc1Cl)CC2 as the compound, how does the IC50 read?
The IC50 was less than 800 nM.

Nc1c(Br)cc(OCC2CCN(C(=O)Nc3nc4c(s3)-c3c(c(-c5cccnc5)nn3-c3ccccc3Cl)CC4)C2)cc1Br (configuration not stated) was tested. Which IC50 did it give?
Its IC50 is less than 800 nM.

How did the IC50 turn out when O=C(NCCN1CCNC1=O)Nc1nc2c(s1)-c1c(c(-c3ccccc3)nn1-c1ccccc1Cl)CC2 was run?
The IC50 was less than 800 nM.

CNC(=O)Nc1nc2c(s1)-c1c(c(-c3ccccc3)nn1-c1cccc(Cl)c1)CC2 was tested. Which IC50 did it give?
Its IC50 is less than 800 nM.

How did the IC50 turn out when O=C(Nc1nc2c(s1)-c1c(c(-c3cccnc3)nn1-c1ccccc1Cl)CC2)N1CCC(N2CCNC2=O)CC1 was run?
Its IC50 is less than 800 nM.

Which IC50 does the source give for CN1CCC(n2nc(-c3cncnc3)c3c2-c2sc(NC(=O)NC[C@H]4CCCN4C(=O)N4CCCC4)nc2CC3)CC1 here?
The IC50 was less than 800 nM.

O=C(NCc1cccc(CN2CCOCC2)n1)Nc1nc2c(s1)-c1c(c(-c3cncnc3)nn1-c1ccccc1Cl)CC2 was tested. Which IC50 did it give?
Its IC50 is less than 800 nM.

For CS(=O)(=O)c1cccc(CNC(=O)Nc2nc3c(s2)-c2c(c(-c4cncnc4)nn2-c2ccccc2Cl)CC3)c1, which IC50 is on record?
Its IC50 is less than 800 nM.

With CC(C)(C)OC(=O)CCNC(=O)Nc1nc2c(s1)-c1c(c(-c3ccccc3)nn1-c1ccccc1Cl)CC2 as the compound, how does the IC50 read?
Its IC50 is less than 800 nM.

How did the IC50 turn out when CN1CCC(CNC(=O)Nc2nc3c(s2)-c2c(c(-c4cccnc4)nn2-c2ccccc2Cl)CC3)CC1 was run?
The IC50 was less than 800 nM.

CC(C)c1noc(CCNC(=O)Nc2nc3c(s2)-c2c(c(C4CC4)nn2-c2ccccc2Cl)CC3)n1 was tested. Which IC50 did it give?
Its IC50 is less than 800 nM.

With Cc1ccc(CN2CC(CNC(=O)Nc3nc4c(s3)-c3c(c(-c5cccnc5)nn3-c3ccccc3Cl)CC4)CC2=O)cc1 (configuration not stated) as the compound, how does the IC50 read?
The IC50 was less than 800 nM.

How did the IC50 turn out when O=C(NC[C@H]1CCNC1)Nc1nc2c(s1)-c1c(c(-c3cncnc3)nn1-c1ccccc1Cl)CC2 was run?
The IC50 was less than 800 nM.

For CCc1csc(CCNC(=O)Nc2nc3c(s2)-c2c(c(-c4cncnc4)nn2-c2ccccc2Cl)CC3)n1, which IC50 is on record?
The IC50 was less than 800 nM.

How did the IC50 turn out when O=C(NC[C@H]1CCCN1C(=O)N1CCCCC1)Nc1nc2c(s1)-c1c(c(-c3cncnc3)nn1-c1ccccc1Cl)CC2 was run?
Its IC50 is less than 800 nM.

Which IC50 does the source give for CN(C)CCNC(=O)Nc1nc2c(s1)-c1c(c(-c3cncnc3)nn1-c1ccccc1Cl)CC2 here?
Its IC50 is less than 800 nM.

Which IC50 does the source give for Cn1cccc1CCNC(=O)Nc1nc2c(s1)-c1c(c(-c3cccnc3)nn1-c1ccccc1Cl)CC2 here?
The IC50 was less than 800 nM.

How did the IC50 turn out when CNC(=O)Nc1nc2c(s1)-c1c(c(-c3ccccc3)nn1-c1ccccc1Cl)CC2 was run?
Its IC50 is less than 800 nM.

For CS(=O)(=O)Nc1ccc(NC(=O)Nc2nc3c(s2)-c2c(c(-c4ccccc4)nn2-c2ccccc2Cl)CC3)cc1, which IC50 is on record?
The IC50 was less than 800 nM.

How did the IC50 turn out when CCCn1cnc(CCNC(=O)Nc2nc3c(s2)-c2c(c(-c4cncnc4)nn2-c2ccccc2Cl)CC3)c1 was run?
Its IC50 is less than 800 nM.

With Cc1nc[nH]c1-c1cccc(CNC(=O)Nc2nc3c(s2)-c2c(c(-c4cncnc4)nn2-c2ccccc2Cl)CC3)c1 as the compound, how does the IC50 read?
The IC50 was less than 800 nM.

CS(=O)(=O)Nc1cccc(NC(=O)Nc2nc3c(s2)-c2c(c(-c4ccccc4)nn2-c2ccccc2Cl)CC3)c1 was tested. Which IC50 did it give?
Its IC50 is less than 800 nM.

Which IC50 does the source give for CCc1nnc(CCNC(=O)Nc2nc3c(s2)-c2c(c(-c4ccccc4)nn2-c2cccc(Cl)c2)CC3)o1 here?
The IC50 was less than 800 nM.

O=C(NC[C@@H]1CCCN1)Nc1nc2c(s1)-c1c(c(-c3cncnc3)nn1-c1ccccc1Cl)CC2 was tested. Which IC50 did it give?
Its IC50 is less than 800 nM.

C[C@H](NC(=O)Nc1nc2c(s1)-c1c(c(-c3ccccc3)nn1-c1ccccc1Cl)CC2)C(=O)N1CCOCC1 was tested. Which IC50 did it give?
The IC50 was less than 800 nM.

For CC(C)(C)OC(=O)CC1(O)CCN(C(=O)Nc2nc3c(s2)-c2c(c(-c4cccnc4)nn2-c2ccccc2Cl)CC3)CC1, which IC50 is on record?
Its IC50 is less than 800 nM.

How did the IC50 turn out when O=C(NCc1nnn[nH]1)Nc1nc2c(s1)-c1c(c(-c3cncnc3)nn1-c1ccccc1Cl)CC2 was run?
The IC50 was less than 800 nM.

Which IC50 does the source give for CN(C)C(=O)Nc1nc2c(s1)-c1c(c(-c3cncnc3)nn1-c1ccccc1Cl)CC2 here?
Its IC50 is less than 800 nM.
